One test concerns the target Histone deacetylase 1 (Homo sapiens, UniProt Q13547). Kind of test: Inhibition of human HDAC1 using H3(1-21)K9 after 60 mins by fluorescence assay.
The subject of another test is Bel-7402. Kind of test: Cytotoxicity against human Bel7402 cells at 10 uM after 24 hrs by MTT assay. It is filed as functional, cell-based.
For the next test, the system named is Peritoneal macrophage. Briefly: Inhibition of LPS-stimulated TNFalpha secretion in C57BL6J mouse peritoneal macrophages at 50 uM after 24 hrs. The test is classed as functional, cell-based.
A further test relates to A2780. Kind of test: Cytotoxicity against human A2780 cells at 10 uM after 24 hrs by MTT assay. It is filed as functional, cell-based.
The subject of a further test is A549. Briefly: Cytotoxicity against human A549 cells at 10 uM after 24 hrs by MTT assay. It is filed as functional, cell-based.
The next test deals with BGC-823. Briefly: Cytotoxicity against human BGC823 cells at 10 uM after 24 hrs by MTT assay. The test is classed as functional, cell-based.
A further test relates to HCT-8. Briefly: Cytotoxicity against human HCT8 cells at 10 uM after 24 hrs by MTT assay. It is filed as functional, cell-based.

Activity calls are given as the source filed them. No cut-off for these calls is given here.

Histone deacetylase 1, sequence (Q13547 whole entry): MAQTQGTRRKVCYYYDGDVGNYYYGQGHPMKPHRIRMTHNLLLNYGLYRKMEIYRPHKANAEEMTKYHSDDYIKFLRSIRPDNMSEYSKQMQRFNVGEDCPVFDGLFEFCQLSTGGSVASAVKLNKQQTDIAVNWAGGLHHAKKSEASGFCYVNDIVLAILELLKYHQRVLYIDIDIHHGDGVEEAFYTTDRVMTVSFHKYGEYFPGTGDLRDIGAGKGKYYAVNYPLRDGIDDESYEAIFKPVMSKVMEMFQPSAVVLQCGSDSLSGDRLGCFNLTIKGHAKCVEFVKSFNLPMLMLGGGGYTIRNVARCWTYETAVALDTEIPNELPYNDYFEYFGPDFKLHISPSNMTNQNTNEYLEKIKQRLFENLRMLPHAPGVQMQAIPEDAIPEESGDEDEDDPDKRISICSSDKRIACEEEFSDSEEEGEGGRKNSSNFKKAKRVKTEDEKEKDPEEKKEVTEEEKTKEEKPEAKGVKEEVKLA

At Histone deacetylase 1, `CC(C)C[C@@]1(C(N)=O)NC(=O)C[C@]1(C)O` yielded an IC50 of 3.7 µM. The result in the test on Bel-7402, with A2780, in the test with A549, in the test on BGC-823 and in the test with HCT-8 was inactive. For the same compound, in the test on Peritoneal macrophage, the inhibition result is “inactive”.

The values are drawn from ChEMBL document CHEMBL4004792, “Monascustin, an Unusual γ-Lactam from Red Yeast Rice” (J Nat Prod, 2017).
